Assay results published in patent US20120184594A1, “PHENYLPYRROLIDINE COMPOUNDS” (Ferrer Internacional S.A., priority 2007, published 2012).

Key:
[1] = Metabolic stability by incubation in human microsomes; assay type: in vitro ADME; conditions: disappearance of compound, 120 min, 1 μM
Description: (§1) Moreover, the compounds of the present invention advantageously provide relevant pharmacokinetic improvements.

[2] = Rat plasma levels and brain/plasma ratio after administration; assay type: in vivo; conditions: 15 min after administration of 1 mg/Kg; for concentration at 15 min: plasma
Description: as §1

[3] = target: T1, recombinant human MT1 receptor (Homo sapiens, UniProt P48039); test: Agonist activity on MT1 receptors (aequorin luminescence, Gα16 co-expressing cell line); assay type: cell-based; conditions: percentage activity with respect to the reference agonist at its EC100; for MT1 agonism 1 nM: compound at 1 nM; for MT1 agonism 100 nM: compound at 100 nM, in %
T1 construct: expressed in transfected cells; host or cells: unnamed cell line co-expressing mitochondrial apoaequorin and the Gα16 subunit
T1 sequence (P48039 whole entry): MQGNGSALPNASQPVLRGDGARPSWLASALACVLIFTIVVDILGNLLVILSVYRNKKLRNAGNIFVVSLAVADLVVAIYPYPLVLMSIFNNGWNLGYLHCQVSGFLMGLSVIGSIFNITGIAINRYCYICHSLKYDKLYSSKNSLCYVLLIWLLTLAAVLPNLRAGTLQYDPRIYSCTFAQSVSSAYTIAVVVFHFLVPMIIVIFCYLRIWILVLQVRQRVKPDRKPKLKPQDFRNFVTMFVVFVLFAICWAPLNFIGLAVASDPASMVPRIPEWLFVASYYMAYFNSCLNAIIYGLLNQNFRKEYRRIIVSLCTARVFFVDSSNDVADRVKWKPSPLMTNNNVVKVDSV
Description: Determination of the agonist activity on MT1 receptors
In order to screen compounds for the MT1 receptor a cell line is used that is characterised by stable overexpression of the recombinant human MT1 receptor in a cell line that in turn co-expresses mitochondrial apoaequorin and the Gα16 subunit.
The Gα16 subunit belongs to the G protein family, formed by GPCR, wherein the transduction of intracellular signals occurs via phospholipase (PLC). PLC activation produces an increase in inositol-triphosphate levels that leads to an increase in intracellular calcium. Gα16 overexpression thus allows an increase in intracellular calcium levels that is independent and compatible with the study receptor's own signal transduction pathway.
Following its binding to calcium, the aequorin oxidises coelenterazine to coelenteramide, a reaction that releases CO2 and light.
The trial protocol for the screening of possible agonists consists in collecting the cells and keeping them in suspension overnight in the presence of coelenterazine in order to reconstitute aequorin. On the following day the cells are injected on a plate where the compounds to be screened are diluted, and the luminescence released is read immediately. When wishing to study the possible antagonism of the same compounds, the reference agonist compound is added in the same well after 15-30 min from the first injection and the luminescence released is assessed.
Agonist activity is calculated as percentage activity with respect to the reference agonist at the concentration corresponding to its EC100. Antagonist activity is expressed as percentage inhibition over the reference agonist activity at the concentration corresponding to its EC80.

[4] = background statement; cited from earlier work

Row | Compound | metabolic stability [1] | concentration at 15 min [2] [ng/mL] | MT1 agonism 1 nM [3] [%] | MT1 agonism 100 nM [3] | Kp at 0.25 h ([2]; brain/plasma) | clearance [4] [%]
1 | CCC(=O)NCC[C@@H]1CCc2ccc(OC)cc21 [(1S)—N-[2-(6-methoxy-indan-1-yl)ethyl]-propionamide, reference compound] | less than 30% | 10.1 |  |  |  | 
2 | (S)-[1-(3-methoxy-phenyl)-pyrrolidin-3-yl]-butyramide [Example 7] |  |  | 33.4 | 99.6 |  | 
3 | CCC(=O)N[C@H]1CCN(c2cccc(OC)c2)C1 [Example 3, (S)—N-[1-(3-methoxy-phenyl)-pyrrolidin-3-yl]-propionamide] |  |  | 46.7 | 109.9 |  | 

Continued, in another order:

Row | metabolic stability [1] | concentration at 15 min [2] [ng/mL] | MT1 agonism 1 nM [3] [%] | MT1 agonism 100 nM [3] | Kp at 0.25 h ([2]; brain/plasma) | Compound | clearance [4] [%]
4 |  |  | 50 | 117.5 |  | CCC(=O)NCC[C@@H]1CCc2ccc3c(c21)CCO3 [Ramelteon, N-[2-[(8S)-1,6,7,8-tetrahydro-2H-indeno[5,4-b]furan-8-yl)ethyl]propionamide, reference compound] | 88
5 |  | 15.1 | 50.1 | 110.3 | 1 | COc1cccc(N2CC[C@H](NC(=O)CC(C)C)C2)c1 [Example 8, (S)—N-[1-(3-methoxy-phenyl)-pyrrolidin-3-yl]-3-methyl-butyramide] | 
6 |  |  | 51.8 | 100.5 |  | COc1ccc2[nH]cc(CCNC(C)=O)c2c1 [Melatonin, reference compound] | 
7 |  |  | 34.4 | 102.7 |  | COc1cccc(N2CC[C@H](NC(C)=O)C2)c1 [Example 4, (S)—N-[1-(3-methoxy-phenyl)-pyrrolidin-3-yl]-acetamide] | 
